Where a name gives a salt, the structure may show the parent alone.
The molecules below were run against T1, human histamine H4 receptor (Homo sapiens, UniProt Q9H3N8) (assay: Binding Assay on Recombinant Human Histamine H4 Receptor). Details: competition binding with 3H-histamine, membranes of SK-N-MC or COS7 cells transfected with human H4R; average of results obtained.
T1 construct: expressed in transfected cells; host or cells: SK-N-MC cells or COS7 cells, transiently transfected with pH4R; membrane preparation
Experimental: Biological Methods: Binding Assay on Recombinant Human Histamine H4 Receptor.
SK-N-MC cells or COS7 cells were transiently transfected with pH4R and grown in 150 cm^2 tissue culture dishes. Cells were washed with saline solution, scraped with a cell scraper and collected by centrifugation (1000 rpm, 5 min). Cell membranes were prepared by homogenization of the cell pellet in 20 mM Tris-HCl with a polytron tissue homogenizer for 10 sec at high speed. Homogenate was centrifuged at 1000 rpm for 5 min at 4° C. The supernatant was then collected and centrifuged at 20,000×g for 25 min at 4° C. The final pellet was resuspended in 50 mM Tris-HCl. Cell membranes were incubated with ^3H-histamine (5-70 nM) in the presence or absence of excess histamine (10,000 nM). Incubation occurred at room temperature for 45 min. Membranes were harvested by rapid filtration over Whatman GF/C filters and washed 4 times with ice-cold 50 mM Tris HCl. Filters were then dried, mixed with scintillant and counted for radioactivity. SK-N-MC or COS7 cells expressing human histamine H4 receptor were used to measure the affinity of binding of other compounds and their ability to displace ^3H-ligand binding by incubating the above-described reaction in the presence of various concentrations of inhibitor or compound to be tested. For competition binding studies using ^3H-histamine, K values were calculated, based on an experimentally determined KD value of 5 nM and a ligand concentration of 5 nM, according to Y.-C.

Row | Ki [nM] | Molecule
1 | 6 | CN[C@H]1CCN(c2nc(N)nc3c4c(sc23)CCC(F)(F)C4)C1 [Example 112, 8,8-Difluoro-4-[(3S)-3-(methylamino)pyrrolidin-1-yl]-6,7,8,9-tetrahydro[1]benzothieno[3,2-d]pyrimidin-2-amine trifluoroacetate]
2 | 1.1 | Nc1nc(N2CC[C@@H](N)C2)c2sc3c(c2n1)CC(F)(F)CC3 [Example 113, 4-[(3R)-3-Aminopyrrolidin-1-yl]-8,8-difluoro-6,7,8,9-tetrahydro[1]benzothieno[3,2-d]pyrimidin-2-amine hydrochloride]
3 | 2.1 | Nc1nc(N2CCCNCC2)c2sc3c(c2n1)CC(F)(F)CC3 [Example 114, 4-(1,4-Diazepan-1-yl)-8,8-difluoro-6,7,8,9-tetrahydro[1]benzothieno[3,2-d]pyrimidin-2-amine trifluoroacetate]
4 | 21 | CN(CCN)c1nc(N)nc2c3c(sc12)CCC(F)(F)C3 [Example 115, N^4-(2-Aminoethyl)-8,8-difluoro-N^4-methyl-6,7,8,9-tetrahydro[1]benzothieno[3,2-d]pyrimidine-2,4-diamine trifluoroacetate]
5 | 0.48 | CN[C@@H]1CCN(c2nc(N)nc3c4c(oc23)CCC(F)(F)C4)C1 [Example 116, 8,8-Difluoro-4-[(3R)-3-(methylamino)pyrrolidin-1-yl]-6,7,8,9-tetrahydro[1]benzofuro[3,2-d]pyrimidin-2-amine hydrochloride]
6 | 6.8 | Nc1nc(N2CC[C@@H](N)C2)c2oc3c(c2n1)CC(F)(F)CC3 [Example 117, 4-[(3R)-3-Aminopyrrolidin-1-yl]-8,8-difluoro-6,7,8,9-tetrahydro[1]benzofuro[3,2-d]pyrimidin-2-amine hydrochloride]
7 | 29 | Nc1nc(N2CCNCC2)c2oc3c(c2n1)CC(F)(F)CC3 [Example 118, 8,8-Difluoro-4-piperazin-1-yl-6,7,8,9-tetrahydro[1]benzofuro[3,2-d]pyrimidin-2-amine hydrochloride]
8 | 21 | Nc1nc(N2CC[C@H](N)C2)c2sc3c(c2n1)CC(F)(F)CC3 [Example 119, 4-[(3S)-3-Aminopyrrolidin-1-yl]-8,8-difluoro-6,7,8,9-tetrahydro[1]benzothieno[3,2-d]pyrimidin-2-amine hydrochloride]
9 | 170 | Nc1nc(N2CC(N)C2)c2sc3c(c2n1)CC(F)(F)CC3 [Example 120, 4-(3-Aminoazetidin-1-yl)-8,8-difluoro-6,7,8,9-tetrahydro[1]benzothieno[3,2-d]pyrimidin-2-amine (free amine)]
10 | 150 | CN1C[C@@H]2CN(c3nc(N)nc4c5c(sc34)CCC(F)(F)C5)C[C@@H]2C1 [Example 121, 8,8-Difluoro-4-[(3aR,6aS)-5-methylhexahydropyrrolo[3,4-c]pyrrol-2(1H)-yl]-6,7,8,9-tetrahydro[1]benzothieno[3,2-d]pyrimidin-2-amine (free amine)]
11 | 7 | CN[C@H]1CCN(c2nc(N)nc3c4c(oc23)CCC(F)(F)C4)C1 [Example 122, 8,8-Difluoro-4-[(3S)-3-(methylamino)pyrrolidin-1-yl]-6,7,8,9-tetrahydro[1]benzofuro[3,2-d]pyrimidin-2-amine trifluoroacetate]
12 | 15 | CN1CCN(c2nc(N)nc3c4c(oc23)CCC(F)(F)C4)CC1 [Example 123, 8,8-Difluoro-4-(4-methylpiperazin-1-yl)-6,7,8,9-tetrahydro[1]benzofuro[3,2-d]pyrimidin-2-amine trifluoroacetate]
13 | 33 | Nc1nc(N2C[C@H]3CCCN[C@H]3C2)c2oc3c(c2n1)CC(F)(F)CC3 [Example 124, 4-((R,R)-octahydropyrrolo[3,4-b]pyridin-6-yl)-8,8-difluoro-6,7,8,9-tetrahydro[1]benzofuro[3,2-d]pyrimidin-2-amine trifluoroacetate]
14 | 150 | CN(CCN)c1nc(N)nc2c3c(oc12)CCC(F)(F)C3 [Example 125, N^4-(2-Aminoethyl)-8,8-difluoro-N^4-methyl-6,7,8,9-tetrahydro[1]benzofuro[3,2-d]pyrimidine-2,4-diamine (free amine)]
15 | 6.1 | Nc1nc(N2CC[C@H](N)C2)c2oc3c(c2n1)CC(F)(F)CC3 [Example 126, 4-[(3S)-3-Aminopyrrolidin-1-yl]-8,8-difluoro-6,7,8,9-tetrahydro[1]benzofuro[3,2-d]pyrimidin-2-amine hydrochloride]
16 | 64 | Nc1nc(N2CC(N)C2)c2oc3c(c2n1)CC(F)(F)CC3 [Example 127, 4-(3-Aminoazetidin-1-yl)-8,8-difluoro-6,7,8,9-tetrahydro[1]benzofuro[3,2-d]pyrimidin-2-amine hydrochloride]
17 | 150 | NCCNc1nc(N)nc2c3c(sc12)CCC(F)(F)C3 [Example 128, N^4-(2-Aminoethyl)-8,8-difluoro-6,7,8,9-tetrahydro[1]benzothieno[3,2-d]pyrimidine-2,4-diamine hydrochloride]
18 | 8.2 | Nc1nc(N2CCCNCC2)c2oc3c(c2n1)CC(F)(F)CC3 [Example 130, 4-(1,4-Diazepan-1-yl)-8,8-difluoro-6,7,8,9-tetrahydro[1]benzofuro[3,2-d]pyrimidin-2-amine (free amine)]
19 | 35 | CC1(C)CCc2sc3c(N4CCCNCC4)nc(N)nc3c2C1 [Example 132, 4-(1,4-Diazepan-1-yl)-8,8-dimethyl-6,7,8,9-tetrahydro[1]benzothieno[3,2-d]pyrimidin-2-amine trifluoroacetate]
20 | 54 | CN(CCN)c1nc(N)nc2c3c(sc12)CCC(C)(C)C3 [Example 133, N^4-(2-Aminoethyl)-N^4,8,8-trimethyl-6,7,8,9-tetrahydro[1]benzothieno[3,2-d]pyrimidine-2,4-diamine trifluoroacetate]
21 | 7.6 | CN[C@@H]1CCN(c2nc(N)nc3c4c(sc23)CCC(C)(C)C4)C1 [Example 134, 8,8-Dimethyl-4-[(3R)-3-(methylamino)pyrrolidin-1-yl]-6,7,8,9-tetrahydro[1]benzothieno[3,2-d]pyrimidin-2-amine hydrochloride]
22 | 35 | CN[C@H]1CCN(c2nc(N)nc3c4c(sc23)CCC(C)(C)C4)C1 [Example 135, 8,8-Dimethyl-4-[(3S)-3-(methylamino)pyrrolidin-1-yl]-6,7,8,9-tetrahydro[1]benzothieno[3,2-d]pyrimidin-2-amine hydrochloride]
23 | 7.7 | CC1(C)CCc2sc3c(N4CC[C@@H](N)C4)nc(N)nc3c2C1 [Example 136, 4-[(3R)-3-Aminopyrrolidin-1-yl]-8,8-dimethyl-6,7,8,9-tetrahydro[1]benzothieno[3,2-d]pyrimidin-2-amine hydrochloride]
24 | 18 | CN[C@@H]1CCN(c2nc(N)nc3c4c(oc23)CCC(C)(C)C4)C1 [Example 137, 8,8-Dimethyl-4-[(3R)-3-(methylamino)pyrrolidin-1-yl]-6,7,8,9-tetrahydro[1]benzofuro[3,2-d]pyrimidin-2-amine hydrochloride]
25 | 145 | (3R)-N-Methyl-1-(6,7,8,9- tetrahydro[1]benzo- thieno[3,2-d]pyrimidin-4- yl)pyrrolidin-3-amine [Example 30]

Row | Molecule | Ki [nM]
26 | Nc1nc(N2C[C@H]3CNC[C@H]3C2)c2sc3c(c2n1)CC(F)(F)CC3 [Example 129, 8,8-Difluoro-4-[(3aR,6aS)-hexahydropyrrolo[3,4-c]pyrrol-2(1H)-yl]-6,7,8,9-tetrahydro[1]benzothieno[3,2-d]pyrimidin-2-amine (free amine)] | 680
